24 compounds from patent publication US20250145633A1, “SUBSTITUTED FURANOPYRIMIDINE COMPOUNDS AS PDE1 INHIBITORS” (Dart NeuroScience, LLC, priority 2017, published 2025) can be followed below.

Molecules are shown by their SMILES. Some results are limits rather than exact numbers.

The target in the first assay is human PDE1B enzyme (Homo sapiens (Human), UniProt Q01064). Description: IMAP TR-FRET PDE1B enzymatic assay. The following applies: negative log of half-maximal molar inhibitory concentration; 200 nM FAM-cAMP; values given as bins. In kind it is biochemical. The procedure, abridged: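 Full-length GST-tagged human PDE1B (250 pg/well) in IMAP BSA buffer with 10 U/ml calmodulin and 2.5 mM CaCl2; compound pre-incubated 5 min at room temperature, then 200 nM (final) FAM-cAMP for 30 min. IMAP binding reagent/Tb added, 1 h; TR-FRET 520/490 ratio read. IC50 from sigmoidal dose-response fit.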
A general note: Time-resolved FRET reads energy transfer from a long-lived donor to a nearby acceptor.
Consider `Cc1oc2ncnc(NC3(C)CC3)c2c1C(=O)NCc1nc(C(F)(F)F)cs1` [Example 704, 6-Methyl-4-[(1-methylcyclopropyl)amino]-N-{[4-(trifluoromethyl)-1,3-thiazol-2-yl]methyl}furo[2,3-d]pyrimidine-5-carboxamide], for which the “PDE1b (pIC50)” value is over 8.

With `Cc1cnc(CNC(=O)c2c(C)oc3ncnc(NC4(C)CC4)c23)nc1` [Example 705, 6-Methyl-4-[(1-methylcyclopropyl)amino]-N-[(5-methylpyrimidin-2-yl)methyl]furo[2,3-d]pyrimidine-5-carboxamide], the “PDE1b (pIC50)” value is recorded as over 8. On to `Cc1oc2ncnc(NC3(C)CC3)c2c1C(=O)NCc1cnc(C2CC2)nc1` [Example 708, N-[(2-Cyclopropylpyrimidin-5-yl)methyl]-6-methyl-4-[(1-methylcyclopropyl)amino]furo[2,3-d]pyrimidine-5-carboxamide], for which the “PDE1b (pIC50)” value is listed as over 8. Consider `COc1ccc2oc(CNC(=O)c3c(C)oc4ncnc(NC5(C)CC5)c34)nc2c1` [Example 714, N-[(5-Methoxy-1,3-benzoxazol-2-yl)methyl]-6-methyl-4-[(1-methylcyclopropyl)amino]furo[2,3-d]pyrimidine-5-carboxamide], for which the “PDE1b (pIC50)” value is reported as over 8. On the same count and under the same terms, under `Cc1oc2ncnc(NC3(C)CC3)c2c1C(=O)NCc1ncc(Cl)cn1` [Example 716, N-[(5-Chloropyrimidin-2-yl)methyl]-6-methyl-4-[(1-methylcyclopropyl)amino]furo[2,3-d]pyrimidine-5-carboxamide] stands over 8.

The assay is the same for the next values; noted with them: negative log of half-maximal molar inhibitory concentration; 200 nM FAM-cAMP; values given as bins; read-out: PDE1b (pIC50) (converted).
Regarding `Cc1csc(CNC(=O)c2c(C)oc3ncnc(NC4(C)CC4)c23)n1` [Example 703, 6-Methyl-N-[(4-methyl-1,3-thiazol-2-yl)methyl]-4-[(1-methylcyclopropyl)amino]furo[2,3-d]pyrimidine-5-carboxamide], the IC50 was 10 to 100 nM. On to `Cc1oc2ncnc(NC3(C)CC3)c2c1C(=O)NCc1ncc(C(F)F)cn1` [Example 706, N-{[5-(Difluoromethyl)pyrimidin-2-yl]methyl}-6-methyl-4-[(1-methylcyclopropyl)amino]furo[2,3-d]pyrimidine-5-carboxamide], for which the IC50 is 10 to 100 nM.

Take `Cc1oc2ncnc(NC3(C)CC3)c2c1C(=O)NCc1nccc(C(F)F)n1` [Example 707, N-{[4-(Difluoromethyl)pyrimidin-2-yl]methyl}-6-methyl-4-[(1-methylcyclopropyl)amino]furo[2,3-d]pyrimidine-5-carboxamide]: the IC50 is 10 to 100 nM. For the compound `COc1nc(C)nc2c1CN(C(=O)c1c(C)oc3ncnc(NC4(C)CC4)c13)C2` [Example 709, 5-{4-Methoxy-2-methyl-5H,6H,7H-pyrrolo[3,4-d]pyrimidine-6-carbonyl}-6-methyl-N-(1-methylcyclopropyl)furo[2,3-d]pyrimidin-4-amine], the IC50 was 100 to 1000 nM.

Consider `Cc1oc2ncnc(NC3(C)CC3)c2c1C(=O)NC(C)c1cncnc1` (stereo not drawn) [Example 710, 6-Methyl-4-[(1-methylcyclopropyl)amino]-N-[1-(pyrimidin-5-yl)ethyl]furo[2,3-d]pyrimidine-5-carboxamide], for which the IC50 is 10 to 100 nM. On the same count and under the same terms, then `COc1ccc(CNC(=O)c2c(C)oc3ncnc(NC4(C)CC4)c23)nn1` [Example 711, N-[(6-Methoxypyridazin-3-yl)methyl]-6-methyl-4-[(1-methylcyclopropyl)amino]furo[2,3-d]pyrimidine-5-carboxamide], with 10 to 100 nM. With `COc1nc(C)nc2c1CN(C(=O)c1c(C)oc3ncnc(NC4(C)CC4)c13)CC2` [Example 712, 5-{4-Methoxy-2-methyl-5H,6H,7H,8H-pyrido[4,3-d]pyrimidine-6-carbonyl}-6-methyl-N-(1-methylcyclopropyl)furo[2,3-d]pyrimidin-4-amine], the IC50 is 10 to 100 nM. Consider `Cc1oc2ncnc(NC3(C)CC3)c2c1C(=O)NCc1ncco1` [Example 713, 6-Methyl-4-[(1-methylcyclopropyl)amino]-N-(1,3-oxazol-2-ylmethyl)furo[2,3-d]pyrimidine-5-carboxamide], for which the IC50 is 10 to 100 nM. As to `Cc1oc2ncnc(NC3(C)CC3)c2c1C(=O)NCc1nccn1C` [Example 715, 6-Methyl-N-[(1-methyl-1H-imidazol-2-yl)methyl]-4-[(1-methylcyclopropyl)amino]furo[2,3-d]pyrimidine-5-carboxamide], the IC50 was 10 to 100 nM. Consider `Cc1nnc(CNC(=O)c2c(C)oc3ncnc(NC4(C)CC4)c23)o1` [Example 717, 6-Methyl-N-[(5-methyl-1,3,4-oxadiazol-2-yl)methyl]-4-[(1-methylcyclopropyl)amino]furo[2,3-d]pyrimidine-5-carboxamide], for which the IC50 is 10 to 100 nM. Turning to `Cc1ccc(CNC(=O)c2c(C)oc3ncnc(NC4(C)CC4)c23)nn1` [Example 718, 6-Methyl-4-[(1-methylcyclopropyl)amino]-N-[(6-methylpyridazin-3-yl)methyl]furo[2,3-d]pyrimidine-5-carboxamide], the IC50 is 10 to 100 nM.

`Cc1oc2ncnc(NC3(C)CC3)c2c1C(=O)NCc1cn2ccnc2cn1` [Example 719, N-{Imidazo[1,2-a]pyrazin-6-ylmethyl}-6-methyl-4-[(1-methylcyclopropyl)amino]furo[2,3-d]pyrimidine-5-carboxamide]: the IC50 is 10 to 100 nM. On the same count and under the same terms, then `Cc1oc2ncnc(NC3(C)CC3)c2c1C(=O)NC1CN(c2ccncn2)C1` [Example 720, 6-Methyl-4-[(1-methylcyclopropyl)amino]-N-[1-(pyrimidin-4-yl)azetidin-3-yl]furo[2,3-d]pyrimidine-5-carboxamide], with 100 to 1000 nM. Same read-out and setting: then `Cc1oc2ncnc(NC3(C)CC3)c2c1C(=O)Nc1ccc(C2CCOCC2)cc1` [Example 721, 6-Methyl-4-[(1-methylcyclopropyl)amino]-N-[4-(oxan-4-yl)phenyl]furo[2,3-d]pyrimidine-5-carboxamide], with 100 to 1000 nM. On to `Cc1oc2ncnc(NC3(C)CC3)c2c1C(=O)NCc1ccc(OC(F)(F)F)cc1` [Example 722, 6-Methyl-4-[(1-methylcyclopropyl)amino]-N-{[4-(trifluoromethoxy)phenyl]methyl}furo[2,3-d]pyrimidine-5-carboxamide], for which the IC50 is 10 to 100 nM.

On to `Cc1oc2ncnc(NC3(C)CC3)c2c1C(=O)NCc1ccc(OC(F)(F)F)cc1F` [Example 723, N-{[2-Fluoro-4-(trifluoromethoxy)phenyl]methyl}-6-methyl-4-[(1-methylcyclopropyl)amino]furo[2,3-d]pyrimidine-5-carboxamide], for which the IC50 was 10 to 100 nM. Take `Cc1oc2ncnc(NC3(C)CC3)c2c1C(=O)NCCc1nc2cc(F)ccc2[nH]1` [Example 724, N-[2-(5-Fluoro-1H-1,3-benzodiazol-2-yl)ethyl]-6-methyl-4-[(1-methylcyclopropyl)amino]furo[2,3-d]pyrimidine-5-carboxamide]: the IC50 was 10 to 100 nM. With `Cc1oc2ncnc(NC3(C)CC3)c2c1C(=O)NCc1nc2ccc(F)cc2n1C` [Example 725, N-[(6-Fluoro-1-methyl-1H-1,3-benzodiazol-2-yl)methyl]-6-methyl-4-[(1-methylcyclopropyl)amino]furo[2,3-d]pyrimidine-5-carboxamide], the IC50 is 10 to 100 nM. Regarding `CCc1nccc(CNC(=O)c2c(C)oc3ncnc(NC4(C)CC4)c23)n1` [Example 726, N-[(2-Ethylpyrimidin-4-yl)methyl]-6-methyl-4-[(1-methylcyclopropyl)amino]furo[2,3-d]pyrimidine-5-carboxamide], the IC50 was 10 to 100 nM.
